Source: PMC11110727, “Exploiting thiol-functionalized benzosiloxaboroles for achieving diverse substitution patterns – synthesis, characterization and biological evaluation of promising antibacterial agents” (RSC Medicinal Chemistry, 2024)
Converted amounts (≈) assume the structure as drawn. Read-outs that look alike come from different tables or passages of the source.

Assays:
[1] = tested on: S. aureus NMI 1576 K MRSA; assay: Antibacterial activity against clinical MRSA: MIC/MBC; format: cell-based; details: Staphylococcus aureus
Outline: (§1)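 Yeasts are grown twice on Sabouraud dextrose agar and bacteria twice on tryptic soy agar (30 °C, 24–48 h). MIC and disc-diffusion testing follow EUCAST/CLSI, and fungicidal or bactericidal activity follows CLSI. Compounds are dissolved in DMSO.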

[2] = tested on: S. aureus NMI 1712 K MRSA; assay: as above; format: cell-based; details: Staphylococcus aureus
Outline: as §1

[3] = tested on: S. aureus NMI 1991 K MRSA; assay: as above; format: cell-based; details: Staphylococcus aureus
Outline: as §1

[4] = tested on: S. aureus NMI 664 K MRSA; assay: as above; format: cell-based; details: Staphylococcus aureus
Outline: as §1

[5] = tested on: Staphylococcus aureus, MSSA and MRSA strains; assay: Antibacterial activity against S. aureus strains (text summaries); format: cell-based; details: for MIC / MBC: Staphylococcus aureus; for MBC: lowest MBC values; for Eagle effect (paradoxical growth) during MBC determination: S. aureus ATCC 6538P and five MRSA clinical strains
Method: (§2) Direct antimicrobial activity was determined against the following standard strains: (1) Gram-positive cocci: methicillin-sensitive Staphylococcus aureus ATCC 6538P (MSSA), methicillin-resistant S. aureus subsp. aureus ATCC 43300 (MRSA), S. epidermidis ATCC 12228, Enterococcus faecium ATCC 6057, E. faecalis ATCC 29212, Bacillus subtilis ATCC 6633; (2) Gram-negative bacteria from Enterobacteriales order: Klebsiella pneumoniae ATCC 13883, Escherichia coli ATCC 25922, Enterobacter cloacae DSM 6234, Proteus mirabilis ATCC 12453, Serratia marcescens ATCC 13880; (3) Gram-negative non-fermentative rods: Acinetobacter baumannii ATCC 19606, Pseudomonas aeruginosa ATCC 27853, Stenotrophomonas maltophilia ATCC 12714, S. maltophilia ATCC 13637, Burkholderia cepacia ATCC 25416, Bordetella bronchiseptica ATCC 4617; (4) yeasts: Candida albicans ATCC 90028, C. krusei ATCC 6258, C. parapsilosis ATCC 22019, C. tropicalis (Castellani) Berkhout ATCC 750, C. tropicalis IBA 171, C. guilliermondii IBA 155, and Saccharomyces cerevisiae ATCC 9763. Moreover, 5 clinical strains of methicillin-resistant S. aureus were also included: NMI 664 K, NMI 1576 K, NMI 1712 K, NMI 1991 K, and NMI 2541 K. All strains were stored at −80 °C. Prior to testing, each bacterial strain was subcultured twice on tryptic soy agar TSA (bioMerieux) medium and yeast strains on Sabouraud dextrose agar (bioMerieux) for 24–48 h at 30 °C to ensure viability. The antimicrobial activity was evaluated as previously described[26] by the disc-diffusion method and the MIC determination assays according to the EUCAST (ref. [71] and [72]) and CLSI (ref. [53] and [73]) recommendations. Assessment of bactericidal (MBC) and fungicidal (MFC) activities was performed according to the CLSI recommendations.[54,74] The following reference agents were used: fluconazole (in the case of fungi), linezolid (for Gram-positive bacteria), and nitrofurantoin (for Gram-negative rods). The new benzosiloxaboroles were dissolved in DMSO (Sigma).

[6] = tested on: Gram-negative rods; assay: Antibacterial activity against Gram-negative rods with or without PAβN (text summaries); format: cell-based; details: for reduction of MIC in the presence of PAβN: Enterobacterales; for efflux assay result (MIC with PAβN): Gram-negative rods
Method: as §2, with “The following reference agents were used: fluconazole (in the case of fungi), linezolid (for Gram-positive bacteria), and nitrofurantoin (for Gram-negative rods).” left out
Considering that the MDR efflux pumps often contribute to Gram-negative rod resistance, the MIC values of studied agents, with or without the pump inhibitor, PAβN (20 μg mL^−1) (Sigma), were determined.[75] The MIC was determined using Mueller–Hinton II broth medium (MHB) (Becton Dickinson) by the broth microdilution method, according to the CLSI guideliness.[53] To minimize the influence of PAβN on the destabilization of bacterial cell covers, the tests were conducted in the presence of 1 mM MgSO4 (Sigma).[76] At least a 4-fold reduction in the MIC value after the addition of PAβN was considered significant.[56,77]

[7] = Determination of acidity constants (pKa) by potentiometric titration
Method: 0.1 M NaOH in H2O/MeOH (1 : 1 v/v).
The acidity constants of benzosiloxaboroles 1e, 2e, 6, 20 and 22–24 were determined by standard pH titration with 0.05 M aq. NaOH. The measurements were performed using a thermostated (25.0 °C) glass vessel equipped with a magnetic stirrer and a 10 mL burette. Prior to the measurement, the pH glass electrode was calibrated using borax and phosphate buffers. A solution of the analyzed compound (ca. 20–40 mg) in a mixture of MeOH/H2O (v/v 1 : 1, 30 mL) was titrated until the pH of the solution exceeded the value of 12.0.

[8] = NMI 1576 K MRSA, read-out: MBC (first MBC where Eagle effect)
[9] = NMI 1712 K MRSA, read-out: MBC (first MBC where Eagle effect)
[10] = NMI 1991 K MRSA, read-out: MBC (first MBC where Eagle effect)
[11] = NMI 664 K MRSA, read-out: MBC (first MBC where Eagle effect)
[12] = both MSSA and MRSA strains, read-out: MIC values against Staphylococcus aureus
[13] = MRSA, read-out: MBC (first MBC where Eagle effect)
[14] = MRSA, read-out: second MBC (Eagle effect)
[15] = NMI 1576 K MRSA, read-out: second MBC (Eagle effect)
[16] = NMI 1712 K MRSA, read-out: second MBC (Eagle effect)
[17] = NMI 1991 K MRSA, read-out: second MBC (Eagle effect)
[18] = NMI 664 K MRSA, read-out: second MBC (Eagle effect)
[19] = standard and five clinical MRSA strains (Table 4), read-out: MIC (MRSA)

C[Si]1(C)OB(O)c2cc(F)c(SC3CC(=O)NC3=O)c(F)c21 (stereo not shown) [Compound 12, 3-((5,7-Difluoro-3-hydroxy-1,1-dimethyl-1,3-dihydrobenzo[c][1,2,5]oxasilaborol-6-yl)thio)pyrrolidine-2,5-dione]
MBC [1, 8]: 100 µg/mL (≈ 291 µM)
MIC ([1]; NMI 1576 K MRSA, read-out: MIC): 6.25 µg/mL (≈ 18.2 µM)
MBC [2, 9]: 200 µg/mL (≈ 583 µM)
MIC ([2]; NMI 1712 K MRSA, read-out: MIC): 12.5 µg/mL (≈ 36.4 µM)
MBC [3, 10]: 100 µg/mL (≈ 291 µM)
MIC ([3]; NMI 1991 K MRSA, read-out: MIC): 12.5 µg/mL (≈ 36.4 µM)
MBC [4, 11]: 200 µg/mL (≈ 583 µM)
MIC ([4]; NMI 664 K MRSA, read-out: MIC): 12.5 µg/mL (≈ 36.4 µM)
MIC [5, 12]: 1.56 to 12.5 µg/mL (≈ 4.55 to 36.4 µM)
reduction of MIC in the presence of PAβN [6]: at least 4 -fold

C[Si]1(C)OB(O)c2ccc(SC(=O)c3ccc(C(F)(F)F)cc3)c(F)c21 [Compound 25, S-(7-Fluoro-3-hydroxy-1,1-dimethyl-1,3-dihydrobenzo[c][1,2,5]oxasilaborol-6-yl) 4-(trifluoromethyl)benzothioate]
MBC [1, 8]: 50 µg/mL (≈ 125 µM)
MIC ([1]; NMI 1576 K MRSA, read-out: MIC): 25 µg/mL (≈ 62.5 µM)
MBC [2, 9]: 25 µg/mL (≈ 62.5 µM)
MIC ([2]; NMI 1712 K MRSA, read-out: MIC): 12.5 µg/mL (≈ 31.2 µM)
MBC [3, 10]: 50 µg/mL (≈ 125 µM)
MIC ([3]; NMI 1991 K MRSA, read-out: MIC): 25 µg/mL (≈ 62.5 µM)
MBC [4, 11]: 25 µg/mL (≈ 62.5 µM)
MIC ([4]; NMI 664 K MRSA, read-out: MIC): 12.5 µg/mL (≈ 31.2 µM)
MBC [5]: 25 to 50 µg/mL (≈ 62.5 to 125 µM)

CCOP(=O)(OCC)Sc1c(F)cc2c(c1F)[Si](C)(C)OB2O [Compound 24, S-(5,7-Difluoro-3-hydroxy-1,1-dimethyl-1,3-dihydrobenzo[c][1,2,5]oxasilaborol-6-yl) O,O-diethyl phosphorothioate]
pKa [7]: 4.9
MIC ([1]; MRSA): 6.25 µg/mL (≈ 16.4 µM)
MBC [1, 13]: 12.5 µg/mL (≈ 32.7 µM)
MBC [1, 14]: 400 µg/mL (≈ 1050 µM)
MIC ([2]; MRSA): 12.5 µg/mL (≈ 32.7 µM)
MBC [2, 13]: 25 µg/mL (≈ 65.4 µM)
MBC [2, 14]: > 400 µg/mL
MIC ([3]; MRSA): 12.5 µg/mL (≈ 32.7 µM)
MBC [3, 13]: 12.5 µg/mL (≈ 32.7 µM)
MBC [3, 14]: > 400 µg/mL
MIC ([4]; MRSA): 6.25 µg/mL (≈ 16.4 µM)
MBC [4, 13]: 25 µg/mL (≈ 65.4 µM)
MBC [4, 14]: > 400 µg/mL
Eagle effect (paradoxical growth) during MBC determination [5]: Eagle effect
MIC [5, 12]: 1.56 to 12.5 µg/mL (≈ 4.08 to 32.7 µM)

C[Si]1(C)OB(O)c2ccc(S)c(F)c21 [Compound 2e, 7-Fluoro-6-mercapto-1,1-dimethylbenzo[c][1,2,5]oxasilaborol-3(1H)-ol]
MBC [5]: 25 to 50 µg/mL (≈ 110 to 219 µM)

C[Si]1(C)OB(O)c2cc(F)c(SCCC#N)c(F)c21 [Compound 6, 3-((5,7-Difluoro-3-hydroxy-1,1-dimethyl-1,3-dihydrobenzo[c][1,2,5]oxasilaborol-6-yl)thio)propanenitrile]
pKa [7]: 5.2
MBC [1, 8]: 25 µg/mL (≈ 83.6 µM)
MIC ([1]; NMI 1576 K MRSA, read-out: MIC): 12.5 µg/mL (≈ 41.8 µM)
MBC [1, 15]: > 400 µg/mL
MBC [2, 9]: 12.5 µg/mL (≈ 41.8 µM)
MIC ([2]; NMI 1712 K MRSA, read-out: MIC): 12.5 µg/mL (≈ 41.8 µM)
MBC [2, 16]: > 400 µg/mL
MBC [3, 10]: 25 µg/mL (≈ 83.6 µM)
MIC ([3]; NMI 1991 K MRSA, read-out: MIC): 12.5 µg/mL (≈ 41.8 µM)
MBC [3, 17]: > 400 µg/mL
MBC [4, 11]: 25 µg/mL (≈ 83.6 µM)
MIC ([4]; NMI 664 K MRSA, read-out: MIC): 12.5 µg/mL (≈ 41.8 µM)
MBC [4, 18]: > 400 µg/mL
Eagle effect (paradoxical growth) during MBC determination [5]: Eagle effect
MIC [5, 12]: 1.56 to 12.5 µg/mL (≈ 5.21 to 41.8 µM)

C[Si]1(C)OB(O)c2ccc(SCCS(=O)(=O)c3ccccc3)c(F)c21 [Compound 21, 7-Fluoro-1,1-dimethyl-6-((2-(phenylsulfonyl)ethyl)thio)benzo[c][1,2,5]oxasilaborol-3(1H)-ol]
efflux assay result (MIC with PAβN) [6]: actively extruded from bacterial cells

C[Si]1(C)OB(O)c2cc(F)c(S)c(F)c21 [Compound 1e, 5,7-Difluoro-6-mercapto-1,1-dimethylbenzo[c][1,2,5]oxasilaborol-3(1H)-ol]
MBC [5]: 25 to 50 µg/mL (≈ 102 to 203 µM)

CC(=O)CSc1ccc2c(c1F)[Si](C)(C)OB2O [Compound 22, 1-((7-Fluoro-3-hydroxy-1,1-dimethyl-1,3-dihydrobenzo[c][1,2,5]oxasilaborol-6-yl)thio)propan-2-one]
pKa [7]: 6.4
MBC [1, 8]: 200 µg/mL (≈ 704 µM)
MIC ([1]; NMI 1576 K MRSA, read-out: MIC): 6.25 µg/mL (≈ 22 µM)
MBC [2, 9]: 400 µg/mL (≈ 1410 µM)
MIC ([2]; NMI 1712 K MRSA, read-out: MIC): 6.25 µg/mL (≈ 22 µM)
MBC [3, 10]: 200 µg/mL (≈ 704 µM)
MIC ([3]; NMI 1991 K MRSA, read-out: MIC): 3.12 µg/mL (≈ 11 µM)
MBC [4, 11]: 200 µg/mL (≈ 704 µM)
MIC ([4]; NMI 664 K MRSA, read-out: MIC): 6.25 µg/mL (≈ 22 µM)
MIC [5, 12]: 1.56 to 12.5 µg/mL (≈ 5.49 to 44 µM)
MIC [5, 19]: 3.12 to 6.25 µg/mL (≈ 11 to 22 µM)

C[Si]1(C)OB(O)c2ccc(SC3CC(=O)NC3=O)c(F)c21 (stereo not shown) [Compound 13, 3-((7-Fluoro-3-hydroxy-1,1-dimethyl-1,3-dihydrobenzo[c][1,2,5]oxasilaborol-6-yl)thio)pyrrolidine-2,5-dione]
reduction of MIC in the presence of PAβN [6]: at least 4 -fold

COC(=O)CCSc1ccc2c(c1F)[Si](C)(C)OB2O [Compound 4, Methyl 3-((7-fluoro-3-hydroxy-1,1-dimethyl-1,3-dihydrobenzo[c][1,2,5]oxasilaborol-6-yl)thio)propanoate]
Eagle effect (paradoxical growth) during MBC determination [5]: Eagle effect
efflux assay result (MIC with PAβN) [6]: actively extruded from bacterial cells

C[Si]1(C)OB(O)c2ccc(SCC(=O)c3ccccc3)c(F)c21 [Compound 23, 2-((7-Fluoro-3-hydroxy-1,1-dimethyl-1,3-dihydrobenzo[c][1,2,5]oxasilaborol-6-yl)thio)-1-phenylethan-1-one]
pKa [7]: 6.3
MBC [1, 8]: 6.25 µg/mL (≈ 18 µM)
MIC ([1]; NMI 1576 K MRSA, read-out: MIC): 3.12 µg/mL (≈ 9.01 µM)
MBC [1, 15]: 100 µg/mL (≈ 289 µM)
MBC [2, 9]: 25 µg/mL (≈ 72.2 µM)
MIC ([2]; NMI 1712 K MRSA, read-out: MIC): 3.12 µg/mL (≈ 9.01 µM)
MBC [2, 16]: 200 µg/mL (≈ 578 µM)
MBC [3, 10]: 3.12 µg/mL (≈ 9.01 µM)
MIC ([3]; NMI 1991 K MRSA, read-out: MIC): 1.56 µg/mL (≈ 4.51 µM)
MBC [3, 17]: 200 µg/mL (≈ 578 µM)
MBC [4, 11]: 3.12 µg/mL (≈ 9.01 µM)
MIC ([4]; NMI 664 K MRSA, read-out: MIC): 3.12 µg/mL (≈ 9.01 µM)
MBC [4, 18]: 200 µg/mL (≈ 578 µM)
Eagle effect (paradoxical growth) during MBC determination [5]: Eagle effect
MIC [5, 12]: 1.56 to 12.5 µg/mL (≈ 4.51 to 36.1 µM)
MIC [5, 19]: 1.56 to 3.12 µg/mL (≈ 4.51 to 9.01 µM)
